Results from article PMC9308932, “Human liver microsomes study on the inhibitory effect of plantainoside D on the activity of cytochrome P450 activity” (BMC Complementary Medicine and Therapies, 2022).

Key:
Format in all cases: in vitro ADME
[1] = target: T1, CYP3A (Homo sapiens, UniProt P08684); experiment: Concentration-dependent inhibition of CYP3A (testosterone 6β-hydroxylation) in human liver microsomes
Method: (§1) The activity of P450s was evaluated by corresponding metabolites using HPLC with Agilent 1260 Series Rapid Resolution HPLC. The reaction system was prepared with the following compositions: HLMs with certain protein concentrations, specific substrates of different isoenzymes, PBS buffer solution, plantainoside D or specific inhibitors, and an NADPH generating system as previously reported. Besides dextromethorphan and quinidine were dissolved in water, other substrated, inhibitors, and plantainoside D were dissolved in methanol with a final concentration of 1% (v/v). Before initiating the reaction, there was a preincubation of 3 min followed by the addition of the NADPH-generating system.
(§2) The effect of plantainoside D was primarily evaluated with the concentration of 0, 2.5, 5, 10, 25, 50, and 100 μM and the values of IC50 was evaluated. Furthermore, the inhibition model of P450 isoenzymes was estimated in the presence of various concentrations of corresponding substrates and fitting with Lineweaver–Burk and Dixon plots, and the inhibition constant was calculated by the following equations:
(§3) v=VmaxS/Km1+I/Ki+S for competitive inhibition;
(§4) v=(VmaxS)/[Km+S(1+I/KiKI)] for non-competitive inhibition.
(§5) where I is the concentration of plantainoside D, Ki is the inhibition constant, S is the concentration of the substrate, and Km is the substrate concentration at half the maximum velocity (Vmax) of the reaction.

[2] = target: T2, CYP2D6 (Homo sapiens, UniProt P10635); experiment: Concentration-dependent inhibition of CYP2D6 (dextromethorphan O-demethylation) in human liver microsomes
T2 construct: Pooled human liver microsomes were obtained from BD Biosciences Discovery Labware; tissue BD Biosciences Discovery Labware; host or cells: pooled human liver microsomes
T2 sequence (P10635 whole entry): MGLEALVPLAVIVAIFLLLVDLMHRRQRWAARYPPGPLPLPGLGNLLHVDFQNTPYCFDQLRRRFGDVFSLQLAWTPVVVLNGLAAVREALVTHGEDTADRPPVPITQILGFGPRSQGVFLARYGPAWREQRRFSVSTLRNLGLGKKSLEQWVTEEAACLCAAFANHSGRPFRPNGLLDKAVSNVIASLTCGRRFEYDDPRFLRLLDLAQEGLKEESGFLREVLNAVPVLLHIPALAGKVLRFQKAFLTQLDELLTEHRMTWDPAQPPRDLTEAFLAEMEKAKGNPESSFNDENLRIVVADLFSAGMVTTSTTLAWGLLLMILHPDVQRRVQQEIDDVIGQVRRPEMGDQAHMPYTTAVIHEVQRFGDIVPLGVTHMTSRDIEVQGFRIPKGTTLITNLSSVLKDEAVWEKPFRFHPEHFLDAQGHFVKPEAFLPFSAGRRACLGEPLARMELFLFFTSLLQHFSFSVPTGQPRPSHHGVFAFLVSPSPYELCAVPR
Method: as §1, §2, §3, §4, §5

[3] = target: T2, CYP2D6; experiment: Time-dependent inhibition of CYP2D6 in human liver microsomes; conditions: 20 μM plantainoside D; incubation 0-30 min; 1 mg/mL HLMs
Method: (§6) A total of 1 mg/mL HLMs were firstly incubated with 20 μM plantainoside D and the NADPH-generating system for 30 min. Then, incubation with 20 μL aliquot was carried out for 0, 5, 10, 15, and 30 min in the presence of substrates concentration close to Km.

[4] = target: T3, CYP2B6 (Homo sapiens, UniProt P20813); experiment: CYP2B6 activity (bupropion hydroxylation) in human liver microsomes; conditions: 0-100 μM plantainoside D
T3 construct: Pooled human liver microsomes were obtained from BD Biosciences Discovery Labware; tissue BD Biosciences Discovery Labware; host or cells: pooled human liver microsomes
T3 sequence (P20813 1-491): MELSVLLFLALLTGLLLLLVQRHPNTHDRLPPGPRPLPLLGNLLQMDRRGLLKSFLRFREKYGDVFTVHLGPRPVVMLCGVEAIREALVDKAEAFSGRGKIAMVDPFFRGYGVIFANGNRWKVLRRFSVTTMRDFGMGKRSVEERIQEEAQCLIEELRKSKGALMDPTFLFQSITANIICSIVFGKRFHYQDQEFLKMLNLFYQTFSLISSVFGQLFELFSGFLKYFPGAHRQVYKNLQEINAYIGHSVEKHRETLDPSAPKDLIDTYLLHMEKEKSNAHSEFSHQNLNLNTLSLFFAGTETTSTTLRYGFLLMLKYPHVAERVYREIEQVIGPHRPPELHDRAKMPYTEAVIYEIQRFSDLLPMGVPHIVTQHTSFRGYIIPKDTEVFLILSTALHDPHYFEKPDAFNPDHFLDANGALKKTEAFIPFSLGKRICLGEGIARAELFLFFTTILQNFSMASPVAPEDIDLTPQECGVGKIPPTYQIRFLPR
Method: as §1, with “system. [table] [table] […] Furthermore, the inhibition model of P450 isoenzymes was estimated in the presence of various concentrations of corresponding substrates and fitting with Lineweaver–Burk and Dixon plots, and the inhibition constant was calculated by the following equations: […]” for “system.”

[5] = target: T4, CYP2C19 (Homo sapiens, UniProt P33261); experiment: CYP2C19 activity (S-mephenytoin 4-hydroxylation) in human liver microsomes; conditions: 0-100 μM plantainoside D
T4 construct: Pooled human liver microsomes were obtained from BD Biosciences Discovery Labware; tissue BD Biosciences Discovery Labware; host or cells: pooled human liver microsomes
T4 sequence (P33261 whole entry): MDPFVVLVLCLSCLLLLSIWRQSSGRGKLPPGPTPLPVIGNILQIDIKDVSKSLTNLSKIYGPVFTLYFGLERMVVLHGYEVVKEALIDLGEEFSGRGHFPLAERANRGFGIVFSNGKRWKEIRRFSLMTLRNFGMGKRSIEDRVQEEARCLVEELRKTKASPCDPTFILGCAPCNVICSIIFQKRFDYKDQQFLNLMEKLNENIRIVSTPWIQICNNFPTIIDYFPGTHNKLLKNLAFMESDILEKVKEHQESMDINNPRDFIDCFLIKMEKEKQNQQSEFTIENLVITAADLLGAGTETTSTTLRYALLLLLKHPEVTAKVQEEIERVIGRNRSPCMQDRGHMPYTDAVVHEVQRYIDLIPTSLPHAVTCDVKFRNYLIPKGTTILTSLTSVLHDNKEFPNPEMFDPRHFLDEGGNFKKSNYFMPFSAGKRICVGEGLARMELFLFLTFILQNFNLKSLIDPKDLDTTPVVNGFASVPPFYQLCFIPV
Method: as §1, with “system. [table] [table] […] Furthermore, the inhibition model of P450 isoenzymes was estimated in the presence of various concentrations of corresponding substrates and fitting with Lineweaver–Burk and Dixon plots, and the inhibition constant was calculated by the following equations: […]” for “system.”

[6] = target: T5, CYP2A6 (Homo sapiens, UniProt P11509); experiment: CYP2A6 activity (coumarin 7-hydroxylation) in human liver microsomes; conditions: 0-100 μM plantainoside D
T5 construct: Pooled human liver microsomes were obtained from BD Biosciences Discovery Labware; tissue BD Biosciences Discovery Labware; host or cells: pooled human liver microsomes
T5 sequence (P11509 1-494): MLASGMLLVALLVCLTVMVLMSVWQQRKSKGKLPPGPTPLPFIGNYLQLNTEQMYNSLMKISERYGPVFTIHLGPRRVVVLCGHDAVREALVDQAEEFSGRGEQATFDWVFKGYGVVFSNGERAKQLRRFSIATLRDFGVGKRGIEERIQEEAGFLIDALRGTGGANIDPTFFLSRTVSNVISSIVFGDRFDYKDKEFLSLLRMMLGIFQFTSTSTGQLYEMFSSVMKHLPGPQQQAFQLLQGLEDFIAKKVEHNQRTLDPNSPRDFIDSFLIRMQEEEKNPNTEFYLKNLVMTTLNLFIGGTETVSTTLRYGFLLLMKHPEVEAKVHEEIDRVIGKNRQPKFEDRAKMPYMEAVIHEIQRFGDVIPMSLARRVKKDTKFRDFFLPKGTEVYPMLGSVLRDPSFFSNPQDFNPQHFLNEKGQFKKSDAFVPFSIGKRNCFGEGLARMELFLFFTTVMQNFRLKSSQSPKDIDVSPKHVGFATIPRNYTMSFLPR
Method: as §1, with “system. [table] [table] […] Furthermore, the inhibition model of P450 isoenzymes was estimated in the presence of various concentrations of corresponding substrates and fitting with Lineweaver–Burk and Dixon plots, and the inhibition constant was calculated by the following equations: […]” for “system.”

[7] = target: T6, CYP2C8 (Homo sapiens, UniProt P10632); experiment: CYP2C8 activity (paclitaxel 6α-hydroxylation) in human liver microsomes; conditions: 0-100 μM plantainoside D
T6 construct: Pooled human liver microsomes were obtained from BD Biosciences Discovery Labware; tissue BD Biosciences Discovery Labware; host or cells: pooled human liver microsomes
T6 sequence (P10632 1-490): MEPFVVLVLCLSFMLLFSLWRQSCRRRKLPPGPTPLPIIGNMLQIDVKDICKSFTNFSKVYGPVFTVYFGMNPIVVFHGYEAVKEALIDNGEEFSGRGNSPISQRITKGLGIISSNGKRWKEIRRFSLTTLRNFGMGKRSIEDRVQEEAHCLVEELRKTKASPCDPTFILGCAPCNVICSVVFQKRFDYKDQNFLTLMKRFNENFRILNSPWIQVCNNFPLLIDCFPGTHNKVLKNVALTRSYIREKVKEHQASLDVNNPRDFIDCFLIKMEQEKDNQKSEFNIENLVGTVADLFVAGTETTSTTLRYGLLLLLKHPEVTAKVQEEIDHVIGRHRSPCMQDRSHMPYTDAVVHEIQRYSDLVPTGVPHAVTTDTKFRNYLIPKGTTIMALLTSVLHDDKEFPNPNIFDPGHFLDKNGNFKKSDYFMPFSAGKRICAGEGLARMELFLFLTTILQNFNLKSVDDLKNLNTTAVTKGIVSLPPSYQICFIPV
Method: as §1, with “system. [table] [table] […] Furthermore, the inhibition model of P450 isoenzymes was estimated in the presence of various concentrations of corresponding substrates and fitting with Lineweaver–Burk and Dixon plots, and the inhibition constant was calculated by the following equations: […]” for “system.”

[8] = target: T7, CYP2E1 (Homo sapiens, UniProt P05181); experiment: CYP2E1 activity (chlorzoxazone 6-hydroxylation) in human liver microsomes; conditions: 0-100 μM plantainoside D
T7 construct: Pooled human liver microsomes were obtained from BD Biosciences Discovery Labware; tissue BD Biosciences Discovery Labware; host or cells: pooled human liver microsomes
T7 sequence (P05181 whole entry): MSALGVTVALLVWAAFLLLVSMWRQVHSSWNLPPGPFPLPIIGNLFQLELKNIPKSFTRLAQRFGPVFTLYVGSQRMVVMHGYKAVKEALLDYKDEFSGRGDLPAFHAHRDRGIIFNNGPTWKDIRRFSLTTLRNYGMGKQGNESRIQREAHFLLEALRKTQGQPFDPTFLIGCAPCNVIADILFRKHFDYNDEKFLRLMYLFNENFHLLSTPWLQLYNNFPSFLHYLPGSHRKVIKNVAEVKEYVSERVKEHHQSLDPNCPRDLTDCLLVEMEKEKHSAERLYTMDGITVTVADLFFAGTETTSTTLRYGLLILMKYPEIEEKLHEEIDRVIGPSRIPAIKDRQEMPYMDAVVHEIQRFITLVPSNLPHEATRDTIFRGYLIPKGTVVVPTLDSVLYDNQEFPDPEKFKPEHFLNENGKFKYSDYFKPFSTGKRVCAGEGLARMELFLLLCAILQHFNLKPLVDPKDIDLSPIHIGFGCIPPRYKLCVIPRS
Method: as §1, with “system. [table] [table] […] Furthermore, the inhibition model of P450 isoenzymes was estimated in the presence of various concentrations of corresponding substrates and fitting with Lineweaver–Burk and Dixon plots, and the inhibition constant was calculated by the following equations: […]” for “system.”

[9] = target: T1, CYP3A; experiment: Time-dependent inhibition of CYP3A in human liver microsomes
Method: as §6, with “Km. Additionally, the values of KI and Kinact were evaluated in the presence of substrates approximate to fourfold Km according to the equation: 1/Kobs=KI/Kinact×1/[I]+1/Kinact .” for “Km.”

[10] = target: T8, CYP1A2 (Homo sapiens, UniProt P05177); experiment: Concentration-dependent inhibition of CYP1A2 (phenacetin O-deethylation) in human liver microsomes
T8 construct: Pooled human liver microsomes were obtained from BD Biosciences Discovery Labware; tissue BD Biosciences Discovery Labware; host or cells: pooled human liver microsomes
T8 sequence (P05177 1-516): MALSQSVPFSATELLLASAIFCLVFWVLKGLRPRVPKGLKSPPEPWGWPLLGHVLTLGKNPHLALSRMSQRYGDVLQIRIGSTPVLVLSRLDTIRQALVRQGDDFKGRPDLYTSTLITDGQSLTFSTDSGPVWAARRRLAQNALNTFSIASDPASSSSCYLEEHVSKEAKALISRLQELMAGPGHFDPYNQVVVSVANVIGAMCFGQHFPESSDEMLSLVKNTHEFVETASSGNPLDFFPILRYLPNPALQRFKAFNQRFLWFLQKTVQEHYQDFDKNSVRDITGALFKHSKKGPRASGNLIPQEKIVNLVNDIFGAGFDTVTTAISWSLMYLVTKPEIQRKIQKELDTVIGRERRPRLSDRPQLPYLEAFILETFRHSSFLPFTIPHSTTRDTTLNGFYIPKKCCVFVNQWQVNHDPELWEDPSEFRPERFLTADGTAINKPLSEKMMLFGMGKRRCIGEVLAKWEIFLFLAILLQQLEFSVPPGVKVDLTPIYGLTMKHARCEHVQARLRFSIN
Method: as §1, §2, §3, §4, §5

[11] = target: T9, CYP2C9 (Homo sapiens, UniProt P11712); experiment: CYP2C9 activity (diclofenac 4'-hydroxylation) in human liver microsomes; conditions: 0-100 μM plantainoside D
T9 construct: Pooled human liver microsomes were obtained from BD Biosciences Discovery Labware; tissue BD Biosciences Discovery Labware; host or cells: pooled human liver microsomes
T9 sequence (P11712 whole entry): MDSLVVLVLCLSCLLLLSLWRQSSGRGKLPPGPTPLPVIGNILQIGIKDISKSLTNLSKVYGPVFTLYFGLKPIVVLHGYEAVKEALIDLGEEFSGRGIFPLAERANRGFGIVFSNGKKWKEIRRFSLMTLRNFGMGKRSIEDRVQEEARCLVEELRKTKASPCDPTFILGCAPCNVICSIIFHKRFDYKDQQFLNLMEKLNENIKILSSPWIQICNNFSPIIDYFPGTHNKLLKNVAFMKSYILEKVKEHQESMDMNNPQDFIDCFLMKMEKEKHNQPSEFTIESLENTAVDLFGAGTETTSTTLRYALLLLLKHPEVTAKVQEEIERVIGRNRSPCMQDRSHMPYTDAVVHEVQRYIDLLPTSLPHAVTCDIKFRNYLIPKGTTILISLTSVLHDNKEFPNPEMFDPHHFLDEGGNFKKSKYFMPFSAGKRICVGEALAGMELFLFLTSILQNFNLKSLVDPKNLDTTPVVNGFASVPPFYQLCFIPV
Method: as §1, with “system. [table] [table] […] Furthermore, the inhibition model of P450 isoenzymes was estimated in the presence of various concentrations of corresponding substrates and fitting with Lineweaver–Burk and Dixon plots, and the inhibition constant was calculated by the following equations: […]” for “system.”

[12] = target: T8, CYP1A2; experiment: Time-dependent inhibition of CYP1A2 in human liver microsomes; conditions: 20 μM plantainoside D; incubation 0-30 min; 1 mg/mL HLMs
Method: as §6

[13] = human, human liver microsomes, probe testosterone (6β-hydroxylation)
[14] = Lineweaver-Burk plot, constant Vmax
[15] = competitive model, Dixon plot, human liver microsomes

T1 sequence (P08684 2-503): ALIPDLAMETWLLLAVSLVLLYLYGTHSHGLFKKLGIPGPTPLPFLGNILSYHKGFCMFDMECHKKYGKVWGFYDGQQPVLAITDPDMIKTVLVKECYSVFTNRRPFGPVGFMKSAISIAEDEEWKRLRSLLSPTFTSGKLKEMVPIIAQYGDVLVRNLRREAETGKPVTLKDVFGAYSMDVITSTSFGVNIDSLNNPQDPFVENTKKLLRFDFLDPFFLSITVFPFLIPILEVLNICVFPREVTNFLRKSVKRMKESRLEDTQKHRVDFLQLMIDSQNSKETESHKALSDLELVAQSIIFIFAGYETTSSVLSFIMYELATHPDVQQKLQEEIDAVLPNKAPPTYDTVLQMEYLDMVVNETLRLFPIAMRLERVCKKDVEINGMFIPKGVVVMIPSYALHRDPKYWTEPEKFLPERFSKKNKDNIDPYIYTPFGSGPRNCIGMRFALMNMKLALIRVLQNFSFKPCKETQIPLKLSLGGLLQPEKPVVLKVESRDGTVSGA

O=C(/C=C/c1ccc(O)c(O)c1)OC[C@H]1O[C@@H](OCCc2ccc(O)c(O)c2)[C@H](O)[C@@H](O[C@@H]2O[C@H](CO)[C@@H](O)[C@H](O)[C@H]2O)[C@@H]1O [plantainoside D, Plantainoside D]
Inhibition model of CYP3A ([1]; Lineweaver-Burk plot, constant Km): non-competitive
IC50 [1, 13]: 14.7 µM
Ki [1, 13]: 7.16 µM
Inhibition model of CYP2D6 [2, 14]: competitive
Ki [2, 15]: 4.54 µM
IC50 ([2]; human liver microsomes, 0-100 μM plantainoside D, dextromethorphan substrate): 8.39 µM
Time dependence of CYP2D6 inhibition [3]: no significant changes with time
Effect on CYP2B6 activity [4]: no changes
Effect on CYP2C19 activity [5]: no changes
Effect on CYP2A6 activity [6]: no changes
Effect on CYP2C8 activity [7]: no changes
Effect on CYP2E1 activity [8]: no changes
Time dependence of CYP3A inhibition ([9]; 20 μM plantainoside D, incubation 0-30 min, 1 mg/mL HLMs): enhanced with the increasing incubation time
kinact ([9]; human liver microsomes, 0, 2, 5, 10, 20, 50 μM plantainoside D, substrate about fourfold Km): 0.00065 s⁻¹
Inhibition model of CYP1A2 [10, 14]: competitive
Ki [10, 15]: 6.26 µM
IC50 ([10]; human liver microsomes, 0-100 μM plantainoside D, phenacetin substrate): 12.8 µM
Effect on CYP2C9 activity [11]: no changes
Time dependence of CYP1A2 inhibition [12]: no significant changes with time
